Assays:
[1] = test system: ovariectomized (OVX) Sprague-Dawley female rats; experiment: Ovariectomized rat model, bone strength testing (3-point bending); assay type: in vivo; conditions: 60 ng/kg body weight once daily for 17 weeks, FIG. 6
Description: Virgin Sprague-Dawley female rats were either sham-operated or ovariectomized (OVX) at 4 months of age by the vendor (Harlan). Starting at 16 weeks post-surgery, the animals were given vehicle or test analog (WT or 2MD) once daily for 17 weeks. Bone mineral density (BMD) and serum and urinary calcium levels were assessed periodically throughout the study. At termination, femurs were collected for bone strength testing (3-point bending, Numira Biosciences).

[2] = test system: 24-hydroxylase (24OHase) gene promoter; experiment: In vitro transcription assay (luciferase reporter in ROS 17/2.8 cells); assay type: cell-based; conditions: FIG. 3; for stimulation of gene transcription compared to the native hormone: in words
Description: In Vitro Transcription Assay
Transcription activity was measured in ROS 17/2.8 (bone) cells that were stably transfected with a 24-hydroxylase (24OHase) gene promoter upstream of a luciferase reporter gene (Arbour et al., 1998). Cells were given a range of doses. Sixteen hours after dosing the cells were harvested and luciferase activities were measured using a luminometer. RLU=relative luciferase units.

[3] = test system: Human promyelocytic leukemia (HL-60) cells; experiment: HL-60 differentiation (nitro blue tetrazolium reduction); assay type: cell-based; conditions: relative to 1,25(OH)2D3; FIG. 2
Description: The study drugs were dissolved in ethanol and the concentrations determined using UV spectrophotometry. Serial dilutions were prepared so that a range of drug concentrations could be tested without changing the final concentration of ethanol (≦0.2%) present in the cell cultures.
Human promyelocytic leukemia (HL-60) cells were grown in RPMI-1640 medium containing 10% fetal bovine serum. The cells were incubated at 37° C. in the presence of 5% CO2.
HL-60 cells were plated at 1.2×10^5 cells/ml. Eighteen hours after plating, cells in duplicate were treated with drug. Four days later, the cells were harvested and a nitro blue tetrazolium reduction assay was performed (Collins et al., 1979; J. Exp. Med. 149:969-974). The percentage of differentiated cells was determined by counting a total of 200 cells and recording the number that contained intracellular black-blue formazan deposits. Verification of differentiation to monocytic cells was determined by measuring phagocytic activity (data not shown).

[4] = biological target: T1, Full-length recombinant rat receptor (vitamin D receptor, VDR) (Rattus norvegicus, UniProt P13053); experiment: Vitamin D receptor competitive binding; conditions: relative to 1,25(OH)2D3, FIG. 1; for competition for binding to the VDR compared to the native hormone: in words
T1 construct: Full-length recombinant rat receptor was expressed in E. coli; histidine tag (C); made in house; host or cells: E. coli BL21(DE3) Codon Plus RIL
T1 sequence (P13053 1-423): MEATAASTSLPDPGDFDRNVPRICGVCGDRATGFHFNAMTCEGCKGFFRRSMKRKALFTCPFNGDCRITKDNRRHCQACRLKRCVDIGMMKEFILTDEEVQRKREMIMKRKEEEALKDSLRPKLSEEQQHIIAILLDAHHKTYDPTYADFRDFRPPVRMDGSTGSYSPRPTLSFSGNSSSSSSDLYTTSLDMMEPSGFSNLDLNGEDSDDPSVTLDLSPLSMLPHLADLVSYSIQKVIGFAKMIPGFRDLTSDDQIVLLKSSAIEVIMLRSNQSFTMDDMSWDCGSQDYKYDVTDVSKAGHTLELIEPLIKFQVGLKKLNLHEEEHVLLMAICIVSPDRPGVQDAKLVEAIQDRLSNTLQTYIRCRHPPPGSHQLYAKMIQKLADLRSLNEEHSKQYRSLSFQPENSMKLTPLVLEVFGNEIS
From the text: Vitamin D Receptor Binding
Full-length recombinant rat receptor was expressed in E. coli BL21(DE3) Codon Plus RIL cells and purified to homogeneity using two different column chromatography systems. The first system was a nickel affinity resin that utilizes the C-terminal histidine tag on this protein. The protein that was eluted from this resin was further purified using ion exchange chromatography (S-Sepharose Fast Flow). Aliquots of the purified protein were quick frozen in liquid nitrogen and stored at −80° C. until use. For use in binding assays, the protein was diluted in TEDK50 (50 mM Tris, 1.5 mM EDTA, pH 7.4, 5 mM DTT, 150 mM KCl) with 0.1% Chaps detergent. The receptor protein and ligand concentration was optimized such that no more than 20% of the added radiolabeled ligand was bound to the receptor.
Unlabeled ligands were dissolved in ethanol and the concentrations determined using UV spectrophotometry (1,25(OH)2D3: molar extinction coefficient=18,200 and 1max=265 nm; Analogs: molar extinction coefficient=42,000 and 1max=252 nm). Radiolabeled ligand (^3H-1,25(OH)2D3, ˜159 Ci/mmole) was added in ethanol at a final concentration of 1 nM.
Radiolabeled and unlabeled ligands were added to 100 mcl of the diluted protein at a final ethanol concentration of ≦10%, mixed and incubated overnight on ice to reach binding equilibrium. The following day, 100 mcl of hydroxylapatite slurry (50%) was added to each tube and mixed at 10-minute intervals for 30 minutes. The hydroxyapaptite was collected by centrifugation and then washed three times with Tris-EDTA buffer (50 mM Tris, 1.5 mM EDTA, pH 7.4) containing 0.5% Titron X-100. After the final wash, the pellets were transferred to scintillation vials containing 4 ml of Biosafe II scintillation cocktail, mixed and placed in a scintillation counter. Total binding was determined from the tubes containing only radiolabeled ligand.

competition for binding to the VDR compared to the native hormone [4] | binding to the vitamin D receptor (VDR), times less active than the natural hormone [4] | Structure (SMILES) | bone strength compared to 2MD at 2.5 ng/kg body weight [1] | stimulation of gene transcription compared to the native hormone [2] | stimulating gene transcription from the 24OHase gene promoter, times more effective than the natural hormone ([2]; relative to 1,25(OH)2D3) | promoting HL-60 cell differentiation, times more potent than the native hormone [3]
one log less than the native hormone | approximately 10 × | C=C1[C@H](O)CC(=C/C=C2\CCC[C@]3(C)[C@@H]([C@H](C)/C=C/[C@@H](O)C(C)(C)O)CC[C@@H]23)C[C@H]1O [WT-51, (22E)-(24R)-2-methylene-22-dehydro-1α,24,25-trihydroxy-19-nor-vitamin D3] | improves bone strength in ovariectomized rats to the same degree as 2MD | nearly one log more potent than the native hormone | approximately 10 × | approximately 10 ×
one log less than the native hormone | approximately 10 × | C=C1[C@H](O)CC(=C/C=C2\CCC[C@]3(C)[C@@H]([C@H](C)/C=C/[C@H](O)C(C)(C)O)CC[C@@H]23)C[C@H]1O [WT-52, (22E)-(24S)-2-methylene-22-dehydro-1α,24,25-trihydroxy-19-nor-vitamin D3] | – | approximately the same activity as the native hormone | – | –
